Source: US8404724B2, “Unit dose formulations and methods of treating thrombosis with an oral factor Xa inhibitor” (Millennium Pharmaceuticals, Inc., priority 2006, dated 2013)
Structures can show the parent of a compound that is named as a salt. Where two headings read alike, the source gives them in different places.

How the values were obtained:
[1] = system: clotting parameters (ACT, PT, aPTT, anti fXa units, plasma thrombin generation); assay: Ex vivo coagulation measurements and bleeding time in baboon model
[2] = system: prothrombin time in human plasma; assay: In vitro extension of PT in human plasma
venous thromboembolism = assay: Randomized trial after total knee replacement: VTE incidence; assay type: in vivo, human; details: for VTE % (95% CI): 10 to 14 days after TKR
Method: The primary efficacy endpoint was the incidence of venous thromboembolism (“VTE”) (symptomatic or asymptomatic deep vein thrombosis on a mandatory unilateral venogram or symptomatic pulmonary embolism) through Day 10 to 14. Safety endpoints included the incidence of major and clinically significant nonmajor bleeds through the day after venography. All efficacy and bleeding endpoints were adjudicated by a blinded, independent central adjudication committee. […] Enoxaparin was administered subcutaneously 12 to 24 hours after surgery and every 12 hours (q 12 h) thereafter. Treatment continued for 10 to 14 days unless a protocol-specified stopping criterion had been met. After discharge from the hospital, patients self-administered study medication. The last dose of study medication was administered the morning of the scheduled mandatory venography of the operated leg (Day 10 to 14).

[3] = system: thrombin generation, anti-Xa activity, aPTT, PT, INR in patient plasma; assay: Randomized trial after total knee replacement: pharmacodynamic measurements; assay type: in vivo, human
Method: Blood samples for assessment of plasma drug concentrations and pharmacodynamic measurements were obtained at screening, 1 to 4 hours after administration of the morning dose of study medication on Day 2, on the day of discharge and prior to the mandatory venogram on Day 10 to 14. Plasma samples were analyzed for betrixaban using high-performance-liquid-chromatography with tandem mass spectrometry. The method was validated for a range from 0.100-50.0 ng/mL, based on the analysis of 0.2 mL plasma. Quantitation was performed using a calibration standard curve generated from weighted least square regression analysis. […] The anti-Xa unit assay was adapted from the Coatest LMW heparin kit (Diapharma) and modified to a 96-well plate format. In this assay, standards and patient samples were assayed in duplicate and the limit of quantification was 0.05 anti-Xa U/mL. Thrombin generation was initiated by the addition of tissue factor (Innovin, Dade Behring) and calcium to citrate anticoagulated patient plasma (0.1 mL). Formation of thrombin was measured by cleavage of a specific thrombin substrate (Z-GGR-AMC, Bachem) over a 10 minute period. Relative fluorescence units were measured in a FlexStation fluorescence reader (Molecular Devices) and used for quantitation of thrombin generation. All patient plasma samples were assayed in triplicate and inhibition of thrombin generation reported as change from baseline relative fluorescent unit for each individual.

[4] = system: thrombus mass in rabbit abdominal vena cava; assay: Rabbit vena cava thrombosis model (clot accretion on cotton threads); assay type: in vivo; details: 3 mg/kg IV infusion
Method: Multiple doses of betrixaban were evaluated in three animal models. […] Efficacy in rabbit venous thrombosis was determined by measuring the thrombus accretion on cotton threads placed in the vena cava by means of a catheter inserted into the left femoral vein, as described by Hollenbach et al., Thromb. Haemost. 1994; 71:357-362, incorporated by reference in its entirety herein. The decrease in thrombus weight following a two hour infusion of compound was expressed relative to vehicle control. See also Sinha, et al., Eur. J. Pharmacology. 395:51-59 (2000), incorporated by reference in its entirety herein.

[5] = system: prothrombin time in rat plasma; assay: In vitro extension of PT in rat plasma
[6] = system: thrombus growth (platelet deposition, fibrin deposition) in arteriovenous shunt; assay: Thrombogenic device in arteriovenous shunt in baboons; assay type: in vivo, baboon
[7] = system: thrombin, factor VIIa, factor IXa, activated protein C, tissue plasminogen activator, plasmin and trypsin; assay: Amidolytic assays for related proteases (specificity); assay type: biochemical; details: relative to human fXa
[8] = system: tissue factor initiated thrombin generation in human whole blood; assay: Whole blood prothrombinase / tissue factor initiated thrombin generation assay; assay type: biochemical
Method: Thrombin activity was quantitated by cleavage of the fluorogenic substrate. […] Relative fluorescence unit (RFU) measurements of representative donor is shown.
Thrombin generation assays were performed as described in Example 4, with compounds added ex vivo to human whole blood. PT and aPTT values in various species determined from compounds added to platelet poor plasma. Samples were run on an ACL 3000plus (Coulter), PT determined using Dade® Thromboplastin C plus and aPTT determined using Dade® Actin® FS Activated PTT reagent.

[9] = system: prothrombin time in baboon plasma; assay: In vitro extension of PT in baboon plasma
[10] = Plasma concentration of betrixaban in baboon model; assay type: in vivo
[11] = Randomized trial after total knee replacement: bleeding and tolerability; design: species or system human; details: in vivo
From the text: The primary efficacy endpoint was the incidence of venous thromboembolism (“VTE”) (symptomatic or asymptomatic deep vein thrombosis on a mandatory unilateral venogram or symptomatic pulmonary embolism) through Day 10 to 14. Safety endpoints included the incidence of major and clinically significant nonmajor bleeds through the day after venography. All efficacy and bleeding endpoints were adjudicated by a blinded, independent central adjudication committee.

[12] = system: vessel patency in FeCl3 induced thrombosis in rat carotid artery; assay: Rat carotid artery FeCl3 induced thrombosis model; assay type: in vivo
Method: Rat FeCl3 model adapted from Kurz, K. D. et al. Thromb. Res. 1990; 60(4):269-280, incorporated by reference in its entirety herein, utilizing the left carotid artery. A stenosis of the artery was applied with a silk ligature reducing blood flow by 50% with a light crush injury followed by application of 50% FeCl3 for the duration of the experiment. Blood flow was monitored via pulsed Doppler flow probe and recorded for 90 minutes post-FeCl3 application. Enoxaparin and Betrixaban administered IV. Clopidogrel administered orally Q.D. for 3 days.

[13] = system: prothrombin time in rabbit plasma; assay: In vitro extension of PT in rabbit plasma
[14] = system: TF-induced plasma thrombin generation; assay: TF-induced plasma thrombin generation assay (plasma pool); assay type: biochemical, human
From the text: For the in vitro studies, a plasma pool was generated from blood collected via venipuncture into 3.2% (1:9 v/v) tri-sodium citrate from a minimum of ten donors. The specific thrombin substrate used was Z-GGR-AMC (Bachem). Tissue factor (Innovin, “TF”) was purchased from Dade Behring. Rabbit anti-human TF IgG and purified recombinant human TF were from American Diagnostica. COATEST LMW Heparin/Heparin Kits were from Chomogenix. Source of anticoagulants tested were as follows: enoxaparin sodium (Aventis Pharmaceuticals), fondaparinux sodium (Glaxo Smith Kline), bivalirudin (The Medicines Company), fXa inhibitor C921-78 (Betz, A. et al. Biochem., 1999; 38-14582-14591); rivaroxaban and razaxaban.
Thrombin generation in the plasma pool in the absence and presence of various anticoagulants and in warfarin treated patients was initiated by the addition of Innovin and calcium. Thrombin generation was measured by the continuous signal generated by cleavage of thrombin substrate over a 10 min period in a FlexStation fluorescence reader ([…]). The fluorescence signal (Max-Min relative fluorescence units) is presented as units (RFU) or arbitrary unites (AU) of thrombin generation and anti-fXa units were measured by Coatest. Quantitation of TF concentration in Innovin was carried out by immunoblotting with rabbit anti-human TF IgG, followed by densitometry and comparison with purified human TF (residues 1-263, expressed in baculovirus).

[15] = Salt selection properties; assay type: physicochemical
PT and aPTT = assay: Ex vivo PT and aPTT in rat carotid model; details: 3 mg/kg/day
Method: The third model investigated inhibition of ^111In labeled platelet deposition on dacron grafts and expansion chambers placed in femoral arteriovenous shunts in baboons. In all models tested, betrixaban and enoxaparin were administered as IV infusions and clopidogrel was dosed orally for three days. Ex vivo PT and aPTT were measured in all models.

[16] = Baboon Arteriovenous, 0.49 mg/kg

For `COc1ccc(NC(=O)c2ccc(C(=N)N(C)C)cc2)c(C(=O)Nc2ccc(Cl)cn2)c1` [betrixaban], the Template bleeding times ([1]; any of the betrixaban treated animals) was “not perturbed”, the “Anti fXa units” value ([1]; highest dose) was 0.31 Units/ml and the “inhibition of plasma thrombin generation (ex vivo)” value ([1]; highest dose) was 72%. The “inhibition of plasma thrombin generation (ex vivo)” value ([1]; lowest dose) was 13%, the “Anti fXa units” value ([1]; three lower doses) was “below the limit of quantitation” and the “concentration for 2× change of PT” value [2] was 0.4 µM. The “VTE % (95% CI)” value (venous thromboembolism; 15 mg BID orally) was 20 (12-32) %, the “VTE % (95% CI)” value (venous thromboembolism; 40 mg BID orally) was 15 (8-27) % and the “preventing VTE after TKR” value (venous thromboembolism; in vivo) was “effective”. The “effect on anti-Xa activity” value ([3]; 15 mg, compared with enoxaparin) was “less”, the “effect on the inhibition of thrombin generation” value ([3]; 40 mg, TKR patients, compared with enoxaparin) was “more pronounced” and the “effect on anti-Xa activity” value ([3]; 40 mg, compared with enoxaparin) was “similar”. For the same compound, the “other coagulation parameters (i.e. aPTT, PT and INR)” value ([3]; TKR patients) was “did not appreciably affect”, the “Antithrombotic Activity” value [4] was 76% inhibition and the “concentration for 2× change of PT” value [5] was 8.9 µM. The “Antithrombotic Activity (arterial)” value [6, 16] was 32% inhibition, the “Antithrombotic Activity (venous)” value [6, 16] was 90% inhibition and the “Platelet deposition at 140 minutes” value ([6]; Dose 3 (26-38 ng/ml), P<0.05) was “significant decrease compared to control”. The “% Inhibition of Fibrin Formation” value ([6]; Dosed Group 1) was −0.38%, the “% Inhibition of Platelet Deposition” value ([6]; Dosed Group 1) was 29.71% and the “% Inhibition of Fibrin Formation” value ([6]; Dosed Group 2) was 37.50%. For the same compound, the “% Inhibition of Platelet Deposition” value ([6]; Dosed Group 2) was 44.20%, the “% Inhibition of Fibrin Formation” value ([6]; Dosed Group 3) was 71.97% and the “% Inhibition of Platelet Deposition” value ([6]; Dosed Group 3) was 65.22%. For the same compound, the “% Inhibition of Fibrin Formation” value ([6]; Dosed Group 4) was 87.12%, the “% Inhibition of Platelet Deposition” value ([6]; Dosed Group 4) was 88.77% and the “Platelet deposition at 140 minutes” value ([6]; dose 4 (54-88 ng/ml), P value<0.01) was “significant decrease compared to control”. The “specificity against related proteases” value [7] was “greater than 86,000 fold”, the “suppressing both markers of thrombin generation, compared to fondaparinux (200 nM)” value ([8]; 200 nM, human whole blood) was “more potent” and the “TAT and F1.2 generation” value ([8]; human whole blood) was “significantly inhibited”. For the same compound, the “tissue factor initiated thrombin generation” value ([8]; human whole blood) was “dose-dependent inhibition”, the “platelet mediated prothrombinase activity” value ([8]; whole blood prothrombinase assay) was “dose-dependently inhibited” and the “concentration for 2× change of PT” value [9] was 1 µM. The “Plasma Concentration Range of Betrixaban” value ([10]; Dosed Group 1) was 7 to 10 ng/mL, the “Plasma Concentration Range of Betrixaban” value ([10]; Dosed Group 2) was 13 to 21 ng/mL and the “Plasma Concentration Range of Betrixaban” value ([10]; Dosed Group 3) was 26 to 38 ng/mL. For the same compound, the “Plasma Concentration Range of Betrixaban” value ([10]; Dosed Group 4) was 54 to 88 ng/mL, the safety and tolerability [11] was “safe and well tolerated” and the “Antithrombotic Activity” value ([12]; 19.1 mg/kg IV) was 90% patency. The “concentration for 2× change of PT” value [13] was 1.6 µM.

Compound Bivalirudin has an IC50 [14] of 2.4 µg/mL.

`O=C(NC[C@H]1CN(c2ccc(N3CCOCC3=O)cc2)C(=O)O1)c1ccc(Cl)s1` [Rivaroxaban] gave an IC50 ([14]; read-out: IC50) of 80 nM.

For `CN(C)Cc1nccn1-c1ccc(NC(=O)c2cc(C(F)(F)F)nn2-c2ccc3onc(N)c3c2)c(F)c1` [Razaxaban], the IC50 ([14]; read-out: IC50) was 125 nM.

With `COc1ccc(NC(=O)c2ccc(C(=N)N(C)C)cc2)c(C(=O)Nc2ccc(Cl)cn2)c1` [betrixaban maleate] the “crystallinity, thermal and hydrolytic stability” value [15] was “excellent”.

In the case of `COC(=O)[C@H](c1ccccc1Cl)N1CCc2sccc2C1` [Clopidogrel], the APTT fold change (PT and aPTT) is reported as 1.03 fold, the PT fold change (PT and aPTT) is reported as 1.01 fold and the “Antithrombotic Activity” value ([12]; 3 mg/kg/day orally for 3 days) is reported as 80% patency.
